# Test results: patent US20240327430A1 (Breakpoint Therapeutics GmbH, priority 2023, published 2024)
# Target: truncated Polθ protein (Polθ-Hel containing the helicase domain (67-894)) (Homo sapiens (Human), UniProt O75417)
# Test: Polθ ATPase assay (Biological Assay 1, ADP-Glo luminescence)
# Type: biochemical
# Conditions: Polθ-Hel 0.5 nM, DNA substrate 500 nM, ATP 60 μM, 23° C.; read-out: Pole ATPase assay IC50
# Experimental: The Polθ ATPase assay was used to evaluate inhibitors of Polθ ATPase activity, in vitro. Experiments were performed using a truncated Polθ protein (Polθ-Hel containing the helicase domain (67-894), ATP and a DNA single strand Oligo (5′-CTGTCCTGCATGATG-3′) in the Polθ assay buffer (20 mM Tis-HCl (pH 8.8), MgCl2 5 mM, tween20 0.01%, NP40 0.01%, BSA 0.01%, DTT 1 mM). 2 μL of assay buffer containing Pole-Hel protein (0.5 nM) and DNA substrate (500 nM) was transferred into assay ready plates, containing 0.04 μL of compounds diluted in DMSO. After a 30 minutes incubation at 23° C. in the dark, the reaction was triggered by adding 2 μL of ATP (60 μM), in assay buffer. After 60 minutes at 23° C., 4 μl of ADP-Glo™ Reagent (Glo 1) was added followed by 40 minutes of incubation, then 8 μl of ADP-Glom kinase Detection Reagent (Glo 2) followed by 60 minutes of incubation at 23° C. Luminescence was then measured using Tecan F200 infinite plate reader. Raw data were analysed using GeneData to generate IC50 values.
# The Polθ ATPase assay described in Biological Assay 1 above was used to evaluate inhibitors of Polθ ATPase activity for the compounds described in the Experimental Part B above, in vitro.
# Sequence of truncated Polθ protein (Polθ-Hel containing the helicase domain (67-894)) (O75417 67-894): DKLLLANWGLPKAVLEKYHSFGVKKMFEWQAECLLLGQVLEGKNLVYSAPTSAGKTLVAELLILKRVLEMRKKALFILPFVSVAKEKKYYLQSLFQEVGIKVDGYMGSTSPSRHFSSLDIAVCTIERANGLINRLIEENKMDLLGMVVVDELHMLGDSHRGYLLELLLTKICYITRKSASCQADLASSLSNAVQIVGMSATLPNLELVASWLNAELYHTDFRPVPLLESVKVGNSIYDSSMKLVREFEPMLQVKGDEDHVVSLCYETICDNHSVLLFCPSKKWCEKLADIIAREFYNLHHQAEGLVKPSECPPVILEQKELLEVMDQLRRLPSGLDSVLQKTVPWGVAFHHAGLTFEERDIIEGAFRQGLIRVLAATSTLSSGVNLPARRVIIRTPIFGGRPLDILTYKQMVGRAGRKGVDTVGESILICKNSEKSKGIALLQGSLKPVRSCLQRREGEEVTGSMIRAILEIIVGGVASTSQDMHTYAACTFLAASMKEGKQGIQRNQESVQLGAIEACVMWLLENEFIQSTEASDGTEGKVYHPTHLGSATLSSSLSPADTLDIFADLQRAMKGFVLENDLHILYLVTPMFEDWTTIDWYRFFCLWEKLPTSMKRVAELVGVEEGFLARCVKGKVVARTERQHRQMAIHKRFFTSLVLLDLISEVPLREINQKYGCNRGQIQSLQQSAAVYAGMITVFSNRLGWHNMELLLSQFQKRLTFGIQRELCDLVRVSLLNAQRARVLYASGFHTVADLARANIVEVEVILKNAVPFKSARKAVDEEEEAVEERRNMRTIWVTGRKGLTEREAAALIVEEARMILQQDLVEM
row,Structure (SMILES),IC50
1,"COc1cnc(Cl)cc1-c1cc(C)ncc1C(=O)Nc1nc2ccc(Cl)cc2s1 [Example 1, N-(6-chloro-1,3-benzothiazol-2-yl)-4-(2-chloro-5-methoxy-4-pyridyl)-6-methyl-pyridine-3-carboxamide]",< 100 nM
2,"COc1cnc(Cl)cc1-c1cc(C)ncc1C(=O)Nc1nc2ccc(S(C)(=O)=O)cc2s1 [Example 2, 2′-chloro-N-(6-methanesulfonyl-1,3-benzothiazol-2-yl)-5′-methoxy-6-methyl-[4,4′-bipyridine]-3-carboxamide]",< 100 nM
3,"COc1cnc(Cl)cc1-c1cc(C)ncc1C(=O)Nc1nc2ccc(C#N)cc2s1 [Example 3, 2′-chloro-N-(6-cyano-1,3-benzothiazol-2-yl)-5′-methoxy-6-methyl-[4,4′-bipyridine]-3-carboxamide]",< 100 nM
4,"COc1cnc(Cl)cc1-c1cc(C)ncc1C(=O)Nc1nc2ccc(Br)cc2s1 [Example 5, N-(6-bromo-1,3-benzothiazol-2-yl)-2′-chloro-5′-methoxy-6-methyl-[4,4′-bipyridine]-3-carboxamide]",< 100 nM
5,"COc1cnc(Cl)cc1-c1cc(C)ncc1C(=O)Nc1nc2cnc(Cl)nc2s1 [Example 6, 2′-chloro-N-{5-chloro-[1,3]thiazolo[5,4-d]pyrimidin-2-yl}-5′-methoxy-6-methyl-[4,4′-bipyridine]-3-carboxamide]",< 100 nM
6,"COc1cnc(Cl)cc1-c1cc(C)ncc1C(=O)Nc1nc2ccc(Cl)nc2s1 [Example 7, 2′-chloro-N-{5-chloro-[1,3]thiazolo[5,4-b]pyridin-2-yl}-5′-methoxy-6-methyl-[4,4′-bipyridine]-3-carboxamide]",< 100 nM
7,"COc1ccccc1-c1cnccc1C(=O)Nc1nc2cncnc2s1 [Example 8, 3-(2-methoxyphenyl)-N-{[1,3]thiazolo[5,4-d]pyrimidin-2-yl}pyridine-4-carboxamide]",100 to 1000 nM
8,"COc1ccccc1-c1cnccc1C(=O)Nc1nc2ccc(Br)cc2s1 [Example 9, N-(6-bromo-1,3-benzothiazol-2-yl)-3-(2-methoxyphenyl)pyridine-4-carboxamide]",100 to 1000 nM
9,"COc1ccccc1-c1cnccc1C(=O)Nc1nc2cnccc2s1 [Example 10, 3-(2-methoxyphenyl)-N-{[1,3]thiazolo[4,5-c]pyridin-2-yl}pyridine-4-carboxamide]",> 1000 nM
10,"COc1ccccc1-c1cnccc1C(=O)Nc1nc2ncccc2s1 [Example 11, 3-(2-methoxyphenyl)-N-{[1,3]thiazolo[4,5-b]pyridin-2-yl}pyridine-4-carboxamide]",> 1000 nM
11,"COc1ccccc1-c1cnccc1C(=O)Nc1nc2cc(C(F)(F)F)ccc2s1 [Example 12, 3-(2-methoxyphenyl)-N-[5-(trifluoromethyl)-1,3-benzothiazol-2-yl]pyridine-4-carboxamide]",> 1000 nM
12,"COc1ccccc1-c1cnccc1C(=O)Nc1nc2cc(Cl)ccc2s1 [Example 13, N-(5-chloro-1,3-benzothiazol-2-yl)-3-(2-methoxyphenyl)pyridine-4-carboxamide]",> 1000 nM
13,"COc1ccccc1-c1cnccc1C(=O)Nc1nc2cccnc2s1 [Example 14, 3-(2-methoxyphenyl)-N-{[1,3]thiazolo[5,4-b]pyridin-2-yl}pyridine-4-carboxamide]",> 1000 nM
14,"COc1cnc(Cl)cc1-c1cc(C)ncc1C(=O)Nc1nc2ccc(N3CCOCC3)cc2s1 [Example 17, 2′-chloro-5′-methoxy-6-methyl-N-[6-(morpholin-4-yl)-1,3-benzothiazol-2-yl]-[4,4′-bipyridine]-3-carboxamide]",< 100 nM
15,"COc1cnc(Cl)cc1-c1cc(C)ncc1C(=O)Nc1nc2cnc(N3CCCCC3)nc2s1 [Example 20, 2′-chloro-5′-methoxy-6-methyl-N-[5-(piperidin-1-yl)-[1,3]thiazolo[5,4-d]pyrimidin-2-yl]-[4,4′-bipyridine]-3-carboxamide]",< 100 nM
16,"COc1cnc(Cl)cc1-c1cc(C)ncc1C(=O)Nc1nc2cnc(N3CCC(F)(F)CC3)nc2s1 [Example 21, 2′-chloro-N-[5-(4,4-difluoropiperidin-1-yl)-[1,3]thiazolo[5,4-d]pyrimidin-2-yl]-5′-methoxy-6-methyl-[4,4′-bipyridine]-3-carboxamide]",< 100 nM
17,"COc1cnc(Cl)cc1-c1cc(C)ncc1C(=O)Nc1nc2cnc(N3CCOCC3)nc2s1 [Example 22, 2′-chloro-5′-methoxy-6-methyl-N-[5-(morpholin-4-yl)-[1,3]thiazolo[5,4-d]pyrimidin-2-yl]-[4,4′-bipyridine]-3-carboxamide]",< 100 nM
18,"COc1cnc(Cl)cc1-c1cc(C)ncc1C(=O)Nc1nc2cnc(N3CC[C@H](O)C3)nc2s1 [Example 23, 2′-chloro-N-{5-[(3S)-3-hydroxypyrrolidin-1-yl]-[1,3]thiazolo[5,4-d]pyrimidin-2-yl}-5′-methoxy-6-methyl-[4,4′-bipyridine]-3-carboxamide]",< 100 nM
19,"COc1cnc(Cl)cc1-c1cc(C)ncc1C(=O)Nc1nc2cnc(N3CCCC3)nc2s1 [Example 24, 2′-chloro-5′-methoxy-6-methyl-N-[5-(pyrrolidin-1-yl)-[1,3]thiazolo[5,4-d]pyrimidin-2-yl]-[4,4′-bipyridine]-3-carboxamide]",< 100 nM
20,"COc1cnc(Cl)cc1-c1cc(C)ncc1C(=O)Nc1nc2cnc(N3CCC(F)(F)C3)nc2s1 [Example 25, 2′-chloro-N-[5-(3,3-difluoropyrrolidin-1-yl)-[1,3]thiazolo[5,4-d]pyrimidin-2-yl]-5′-methoxy-6-methyl-[4,4′-bipyridine]-3-carboxamide]",< 100 nM
21,"COc1cnc(Cl)cc1-c1cc(C)ncc1C(=O)Nc1nc2cnc(N3CC[C@@H](O)C3)nc2s1 [Example 26, 2′-chloro-N-{5-[(3R)-3-hydroxypyrrolidin-1-yl]-[1,3]thiazolo[5,4-d]pyrimidin-2-yl}-5′-methoxy-6-methyl-[4,4′-bipyridine]-3-carboxamide]",< 100 nM

# Next, values leading:
row,IC50,Structure (SMILES)
1,< 100 nM,"COc1cnc(Cl)cc1-c1cc(C)ncc1C(=O)Nc1nc2cnc(N[C@@H]3CC[C@H](O)C3)nc2s1 (racemic) [Example 49, rac-2′-chloro-N-(5-{[(1R,3S)-3-hydroxycyclopentyl]amino}-[1,3]thiazolo[5,4-d]pyrimidin-2-yl)-5′-methoxy-6-methyl-[4,4′-bipyridine]-3-carboxamide]"
2,< 100 nM,"COc1cnc(Cl)cc1-c1cc(C)ncc1C(=O)Nc1nc2cnc(N3CCS(=O)(=O)CC3)nc2s1 [Example 27, 2′-chloro-N-[5-(1,1-dioxo-1λ^6-thiomorpholin-4-yl)-[1,3]thiazolo[5,4-d]pyrimidin-2-yl]-5′-methoxy-6-methyl-[4,4′-bipyridine]-3-carboxamide]"
3,< 100 nM,"COc1cnc(Cl)cc1-c1cc(C)ncc1C(=O)Nc1nc2cnc(N3CCN(C)CC3)nc2s1 [Example 28, 2′-chloro-5′-methoxy-6-methyl-N-[5-(4-methylpiperazin-1-yl)-[1,3]thiazolo[5,4-d]pyrimidin-2-yl]-[4,4′-bipyridine]-3-carboxamide]"
4,< 100 nM,"COc1cnc(Cl)cc1-c1cc(C)ncc1C(=O)Nc1nc2cnc(N3CC4(COC4)C3)nc2s1 [Example 29, 2′-chloro-5′-methoxy-6-methyl-N-(5-{2-oxa-6-azaspiro[3.3]heptan-6-yl}-[1,3]thiazolo[5,4-d]pyrimidin-2-yl)-[4,4′'-bipyridine]-3-carboxamide]"
5,< 100 nM,"COCCNc1ncc2nc(NC(=O)c3cnc(C)cc3-c3cc(Cl)ncc3OC)sc2n1 [Example 30, 2′-chloro-5′-methoxy-N-{5-[(2-methoxyethyl)amino]-[1,3]thiazolo[5,4-d]pyrimidin-2-yl}-6-methyl-[4,4′-bipyridine]-3-carboxamide]"
6,< 100 nM,"COc1cnc(Cl)cc1-c1cc(C)ncc1C(=O)Nc1nc2cnc(N3CC(O)C3)nc2s1 [Example 31, 2′-chloro-N-[5-(3-hydroxyazetidin-1-yl)-[1,3]thiazolo[5,4-d]pyrimidin-2-yl]-5′-methoxy-6-methyl-[4,4′-bipyridine]-3-carboxamide]"
7,< 100 nM,"COc1cnc(Cl)cc1-c1cc(C)ncc1C(=O)Nc1nc2cnc(N3CCC(OC)C3)nc2s1 (stereo not shown) [Example 32, 2′-chloro-5′-methoxy-N-[5-(3-methoxypyrrolidin-1-yl)-[1,3]thiazolo[5,4-d]pyrimidin-2-yl]-6-methyl-[4,4′-bipyridine]-3-carboxamide]"
8,< 100 nM,"COc1cnc(Cl)cc1-c1cc(C)ncc1C(=O)Nc1nc2cnc(N3CCC(O)CC3)nc2s1 [Example 33, 2′-chloro-N-[5-(4-hydroxypiperidin-1-yl)-[1,3]thiazolo[5,4-d]pyrimidin-2-yl]-5′-methoxy-6-methyl-[4,4′-bipyridine]-3-carboxamide]"
9,< 100 nM,"COc1cnc(Cl)cc1-c1cc(C)ncc1C(=O)Nc1nc2cnc(N3C[C@@H]4C[C@H]3CO4)nc2s1 [Example 34, 2′-chloro-5′-methoxy-6-methyl-N-{5-[(1S,4S)-2-oxa-5-azabicyclo[2.2.1]heptan-5-yl]-[1,3]thiazolo[5,4-d]pyrimidin-2-yl}-[4,4′-bipyridine]-3-carboxamide]"
10,< 100 nM,"COc1cnc(Cl)cc1-c1cc(C)ncc1C(=O)Nc1nc2cnc(N3CCCC(C#N)C3)nc2s1 (stereo not shown) [Example 35, 2′-chloro-N-[5-(3-cyanopiperidin-1-yl)-[1,3]thiazolo[5,4-d]pyrimidin-2-yl]-5′-methoxy-6-methyl-[4,4′-bipyridine]-3-carboxamide]"
